Legend:
Assay type in all cases: in vivo
Solanum nigrum (SOLNI) [1] = test: Pre-emergence Test (glasshouse, percentage damage to the plant); conditions: 1000 g/ha unless otherwise stated, five-point scale
Lolium perenne (LOLPE) [2] = test: as above; conditions: 1000 g/ha unless otherwise stated, five-point scale
[3] = tested on: Amaranthus retoflexus (AMARE); test: Post-emergence Test (glasshouse, percentage damage to the plant); conditions: post-emergence spray, 1000 g/ha unless otherwise stated, evaluated after 13 days
Method in brief: (§1)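 Seeds are sown in standard soil under controlled glasshouse conditions. The pots are then sprayed at 1000 g/ha, unless otherwise stated, with compound in acetone/water (50:50) containing 0.5% Tween 20. After 13 days further growth, percentage plant damage is scored from 1 (0-20%) to 5 (81-100%).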

Lolium perenne (LOLPE) [4] = test: as above; conditions: post-emergence spray, 1000 g/ha unless otherwise stated, evaluated after 13 days
Method in brief: as §1

Setaria faberi (SETFA) [5] = test: as above; conditions: post-emergence spray, 1000 g/ha unless otherwise stated, evaluated after 13 days
Method in brief: (§2)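 Damage was rated 13 days after treatment and expressed on a five-point scale: 5=81-100%, 4=61-80%, 3=41-60%, 2=21-40%, 1=0-20%. Spray was applied at 1000 g/ha unless otherwise stated, from acetone/water (50:50) with 0.5% Tween 20, to sown pots.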

[6] = tested on: Ipomoea hederacea (IPOHE); test: as above; conditions: post-emergence spray, 1000 g/ha unless otherwise stated, evaluated after 13 days
Method in brief: as §2

Solanum nigrum (SOLNI) [7] = test: as above; conditions: post-emergence spray, 1000 g/ha unless otherwise stated, evaluated after 13 days
Method in brief: as §1

[8] = tested on: Echinochloa crus-galli (ECHCG); test: as above; conditions: post-emergence spray, 1000 g/ha unless otherwise stated, evaluated after 13 days
Method in brief: as §1

Setaria faberi (SETFA) [9] = test: Pre-emergence Test (glasshouse, percentage damage to the plant); conditions: 1000 g/ha unless otherwise stated, five-point scale
[10] = tested on: Amaranthus retoflexus (AMARE); test: as above; conditions: 1000 g/ha unless otherwise stated, five-point scale
[11] = tested on: Ipomoea hederacea (IPOHE); test: as above; conditions: 1000 g/ha unless otherwise stated, five-point scale
[12] = tested on: Echinochloa crus-galli (ECHCG); test: as above; conditions: 1000 g/ha unless otherwise stated, five-point scale

Structure (SMILES)	percentage damage to the plant, SOLNI (Solanum nigrum (SOLNI) [1])	percentage damage to the plant, LOLPE (Lolium perenne (LOLPE) [2])	Post-emergence Test AMARE, percentage damage to the plant (five-point scale) [3]	Post-emergence Test LOLPE, percentage damage to the plant (five-point scale) (Lolium perenne (LOLPE) [4])	Post-emergence Test SETFA, percentage damage to the plant (five-point scale) (Setaria faberi (SETFA) [5])	Post-emergence Test IPOHE, percentage damage to the plant (five-point scale) [6]	Post-emergence Test SOLNI, percentage damage to the plant (five-point scale) (Solanum nigrum (SOLNI) [7])	Post-emergence Test ECHCG, percentage damage to the plant (five-point scale) [8]	percentage damage to the plant, SETFA (Setaria faberi (SETFA) [9])	percentage damage to the plant, AMARE [10]	percentage damage to the plant, IPOHE [11]	percentage damage to the plant, ECHCG [12]
CCn1c(C)c(-c2cncc(Cl)c2)c(=O)c(C(=O)O)c1-c1ccc(Cl)c(Cl)c1 [Compound 23, 5-(5-chloro-3-pyridyl)-2-(3,4-dichlorophenyl)-1-ethyl-6-methyl-4-oxo-pyridine-3-carboxylic acid]	1 (1=0-20%)	1 (1=0-20%)	3 (3=41-60%)	1 (1=0-20%)	4 (4=61-80%)	3 (3=41-60%)	1 (1=0-20%)	3 (3=41-60%)	5 (5=81-100%)	1 (1=0-20%)	1 (1=0-20%)	1 (1=0-20%)
CCn1c(C)c(-c2ccccc2)c(=O)c(C(=O)O)c1-c1ccc(Cl)c(Cl)c1 [Compound 24, 2-(3,4-dichlorophenyl)-1-ethyl-6-methyl-4-oxo-5-phenyl-pyridine-3-carboxylic acid]	5 (5=81-100%)	2 (2=21-40%)	4 (4=61-80%)	4 (4=61-80%)	4 (4=61-80%)	4 (4=61-80%)	5 (5=81-100%)	3 (3=41-60%)	1 (1=0-20%)	1 (1=0-20%)	4 (4=61-80%)	2 (2=21-40%)
CCn1c(C)c(-c2ccncc2)c(=O)c(C(=O)O)c1-c1ccc(Cl)c(Cl)c1 [Compound 25, 2-(3,4-dichlorophenyl)-1-ethyl-6-methyl-4-oxo-5-pyridin-1-ium-4-yl-pyridine-3-carboxylic acid;2,2,2-trifluoroacetate]	1 (1=0-20%)	1 (1=0-20%)	3 (3=41-60%)	1 (1=0-20%)	4 (4=61-80%)	2 (2=21-40%)	2 (2=21-40%)	4 (4=61-80%)	3 (3=41-60%)	1 (1=0-20%)	1 (1=0-20%)	1 (1=0-20%)
CCn1c(C)c(-c2ccc(C(F)(F)F)cc2)c(=O)c(C(=O)O)c1-c1ccc(Cl)c(Cl)c1 [Compound 26, 2-(3,4-dichlorophenyl)-1-ethyl-6-methyl-4-oxo-5-[4-(trifluoromethyl)phenyl]pyridine-3-carboxylic acid]	1 (1=0-20%)	1 (1=0-20%)	5 (5=81-100%)	1 (1=0-20%)	5 (5=81-100%)	4 (4=61-80%)	2 (2=21-40%)	4 (4=61-80%)	1 (1=0-20%)	1 (1=0-20%)	1 (1=0-20%)	1 (1=0-20%)
CCn1c(C)c(-c2ncco2)c(=O)c(C(=O)O)c1-c1ccc(Cl)c(Cl)c1 [Compound 27, 2-(3,4-dichlorophenyl)-1-ethyl-6-methyl-5-oxazol-2-yl-4-oxo-pyridine-3-carboxylic acid]	1 (1=0-20%)	1 (1=0-20%)	3 (3=41-60%)	1 (1=0-20%)	3 (3=41-60%)	2 (2=21-40%)	3 (3=41-60%)	3 (3=41-60%)	1 (1=0-20%)	1 (1=0-20%)	1 (1=0-20%)	1 (1=0-20%)

Reference: US12660819B2, “Herbicidal derivatives” (SYNGENTA CROP PROTECTION AG, priority 2020, dated 2026)
